The results in this text go back to ChEMBL document CHEMBL6120946, “From Hit to Lead: Discovery of First-In-Class Furanone Glycoside D228 Derived from Chimonanthus salicifolius for the Treatment of Inflammatory Bowel Disease” (J Med Chem, 2024).

The nature of series [1]: Toxicity in female Kunming mouse assessed as effect on BUN level in serum at 100 to 500 mg/kg/day, po measured after 5 weeks. The following applies: in vivo, 840 h, dose 100-500 mg/kg/day. The class given is organism-based.
The nature of series [2]: Acute toxicity in male Kunming mouse assessed as effect on lung 5 g/Kg, po measured after 5 weeks. Type of series: organism-based. To be noted: in vivo, 5000 mg/kg, 840 h.
A short description of series [3]: Acute toxicity in male Kunming mouse assessed as effect on body weight loss 5 g/Kg, po measured after 5 weeks. The class given is organism-based. To be noted: in vivo, 5000 mg/kg, 840 h.
Series [4] is described as follows: Acute toxicity in female Kunming mouse assessed as effect on spleen 5 g/Kg, po measured after 5 weeks. Type of series: organism-based. The following applies: in vivo, 5000 mg/kg, 840 h.
Series [5] is described as follows: Toxicity in female Kunming mouse assessed as effect on ALT level in serum at 100 to 500 mg/kg/day, po measured after 5 weeks. Type of series: organism-based. The following applies: in vivo, 840 h, dose 100-500 mg/kg/day.
A short description of series [6]: Toxicity in female Kunming mouse assessed as effect on ABL level in serum at 100 to 500 mg/kg/day, po measured after 5 weeks. The class given is organism-based. The following applies: in vivo, 840 h, dose 100-500 mg/kg/day.
Series [7] in a line: Toxicity in male Kunming mouse assessed as effect on […] level in serum at 100 to 500 mg/kg/day, po measured after 5 weeks. The class given is organism-based. To be noted: in vivo, 840 h, dose 100-500 mg/kg/day.
Series [8] in a line: Toxicity in male Kunming mouse assessed as change in food intake at 100 to 500 mg/kg/day, po measured after 5 weeks. The class given is organism-based. To be noted: in vivo, 840 h, dose 100-500 mg/kg/day.
Series [9] can be described thus: Acute toxicity in female Kunming mouse assessed as effect on heart 5 g/Kg, po measured after 5 weeks. The following applies: in vivo, 5000 mg/kg, 840 h. Type of series: organism-based.
The nature of series [10]: Acute toxicity in male Kunming mouse assessed as effect on spleen 5 g/Kg, po measured after 5 weeks. The class given is organism-based. To be noted: in vivo, 5000 mg/kg, 840 h.
Series [11] can be described thus: Toxicity in female Kunming mouse assessed as effect on Cl inorganic salt level in serum at 100 to 500 mg/kg/day, po measured after 5 weeks. Type of series: organism-based. The following applies: in vivo, 840 h, dose 100-500 mg/kg/day.
Series [12] is described as follows: Toxicity in male Kunming mouse assessed as effect on heart to body weight ratio at 100 to 500 mg/kg/day, po measured after 5 weeks. The following applies: in vivo, 840 h, dose 100-500 mg/kg/day. The class given is organism-based.
The nature of series [13]: Toxicity in male Kunming mouse assessed as effect on lung to body weight ratio at 100 to 500 mg/kg/day, po measured after 5 weeks. Type of series: organism-based. To be noted: in vivo, 840 h, dose 100-500 mg/kg/day.
A short description of series [14]: Acute toxicity in female Kunming mouse assessed as effect on body weight loss 5 g/Kg, po measured after 5 weeks. The class given is organism-based. The following applies: in vivo, 5000 mg/kg, 840 h.
Series [15] can be described thus: Toxicity in male Kunming mouse assessed as effect on TBIL level in serum at 100 to 500 mg/kg/day, po measured after 5 weeks. The class given is organism-based. The following applies: in vivo, 840 h, dose 100-500 mg/kg/day.
Series [16] is described as follows: Acute toxicity in male Kunming mouse assessed as effect on heart 5 g/Kg, po measured after 5 weeks. Type of series: organism-based. The following applies: in vivo, 5000 mg/kg, 840 h.
Series [17] in a line: Toxicity in male Kunming mouse assessed as effect on CREA level in serum at 100 to 500 mg/kg/day, po measured after 5 weeks. The class given is organism-based. To be noted: in vivo, 840 h, dose 100-500 mg/kg/day.
For series [18], the system named is Mus musculus. The series can be described thus: Antiinflammatory activity in DSS-induced male C57BL/6 mouse model assessed as inhibition of TNF-alpha level in colon at 50 to 100 microM/Kg. Type of series: functional, organism-based. The following applies: dose 50-100 µM/Kg.
Series [19] in a line: Toxicity in male Kunming mouse assessed as effect on TG level in serum at 100 to 500 mg/kg/day, po measured after 5 weeks. Type of series: organism-based. To be noted: in vivo, 840 h, dose 100-500 mg/kg/day.
A short description of series [20]: Toxicity in male Kunming mouse assessed as effect on AST level in serum at 100 to 500 mg/kg/day, po measured after 5 weeks. The class given is organism-based. To be noted: in vivo, 840 h, dose 100-500 mg/kg/day.
For series [21], the system named is Mus musculus. Briefly: Antiinflammatory activity in DSS-induced male C57BL/6 mouse model of inflammatory bowel disease assessed as amelioration of structural loss of colon at 50 to 100 microM/Kg by H and E staining based analysis. Type of series: functional, organism-based. The following applies: dose 50-100 µM/Kg.
Series [22] in a line: Toxicity in female Kunming mouse assessed as effect on Na inorganic salt level in serum at 100 to 500 mg/kg/day, po measured after 5 weeks. The class given is organism-based. To be noted: in vivo, 840 h, dose 100-500 mg/kg/day.
The nature of series [23]: Toxicity in male Kunming mouse assessed as effect on Na inorganic salt level in serum at 100 to 500 mg/kg/day, po measured after 5 weeks. The class given is organism-based. The following applies: in vivo, 840 h, dose 100-500 mg/kg/day.
In series [24] the test system is Mus musculus. Briefly: Antiinflammatory activity in DSS-induced male C57BL/6 mouse model of inflammatory bowel disease assessed as downregulation of TRAF6 expression at 50 to 100 microM/Kg by Western blot analysis. To be noted: dose 50-100 µM/Kg. The class given is functional, organism-based.
In series [25] the test system is Mus musculus. Briefly: Antiinflammatory activity in DSS-induced male C57BL/6 mouse model of inflammatory bowel disease assessed as reduction in diarrhea at 22.5 to 45 mg/kg/day, po via gavage measured upto 14 days. Type of series: functional, organism-based. The following applies: dose 22.5-45 mg/kg/day, time <= 14.0 day.
Series [26] can be described thus: Toxicity in male Kunming mouse assessed as effect on K inorganic salt level in serum at 100 to 500 mg/kg/day, po measured after 5 weeks. Type of series: organism-based. The following applies: in vivo, 840 h, dose 100-500 mg/kg/day.
Series [27] has as its system Mus musculus. Briefly: Antiinflammatory activity in DSS-induced male C57BL/6 mouse model assessed as inhibition of IL-17A level in colon at 50 to 100 microM/Kg. Type of series: functional, organism-based. To be noted: dose 50-100 µM/Kg.
Series [28] can be described thus: Toxicity in female Kunming mouse assessed as lethal dose administered as po measured after 5 weeks. The class given is organism-based. To be noted: in vivo.
In series [29] the test system is Mus musculus. Briefly: Antiinflammatory activity in DSS-induced male C57BL/6 mouse model of inflammatory bowel disease assessed as upregulation of ZO-1 expression in colon at 50 to 100 microM/Kg by immunohistochemical analysis. The class given is functional, organism-based. To be noted: dose 50-100 µM/Kg.
The nature of series [30]: Toxicity in male Kunming mouse assessed as effect on body weight loss at 100 to 500 mg/kg/day, po measured after 5 weeks. Type of series: organism-based. The following applies: in vivo, 840 h, dose 100-500 mg/kg/day.
The subject of series [31] is Mus musculus. The series can be described thus: Antiinflammatory activity in DSS-induced male C57BL/6 mouse model of inflammatory bowel disease assessed as increase in colon length at 22.5 mg/kg/day, po via gavage measured upto 14 days relative to control. Type of series: functional. To be noted: time <= 14 day.
Series [32] relates to Mus musculus. The series can be described thus: Antiinflammatory activity in DSS-induced male C57BL/6 mouse model of inflammatory bowel disease assessed as reduction of bloody stool at 15 to 60 mg/kg/day, po via gavage measured upto 14 days. Type of series: functional, organism-based. To be noted: dose 15-60 mg/kg/day, time <= 14.0 day.
Series [33] has as its system Mus musculus. The series can be described thus: Antiinflammatory activity in DSS-induced male C57BL/6 mouse model assessed as inhibition of IL-17A level in colon at 50 to 200 microM/Kg. Type of series: functional, organism-based. To be noted: dose 50-200 µM/Kg.
The species entered for series [34] is Mus musculus. The series can be described thus: Antiinflammatory activity in DSS-induced male C57BL/6 mouse model of inflammatory bowel disease assessed as reduction in p38 level. Type of series: functional, organism-based.
The subject of series [35] is Mus musculus. Briefly: Antiinflammatory activity in DSS-induced male C57BL/6 mouse model of inflammatory bowel disease assessed as reduction in weight loss at 15 to 60 mg/kg/day, po via gavage measured upto 14 days. Type of series: functional, organism-based. To be noted: dose 15-60 mg/kg/day, time <= 14.0 day.
The species entered for series [36] is Mus musculus. The series can be described thus: Antiinflammatory activity in DSS-induced male C57BL/6 mouse model of inflammatory bowel disease assessed as reduction in TLR4 level. Type of series: functional, organism-based.
For series [37], the system named is Mus musculus. Briefly: Antiinflammatory activity in DSS-induced male C57BL/6 mouse model of inflammatory bowel disease assessed as reduction of severe diarrhea at 15 to 60 mg/kg/day, po via gavage measured upto 14 days. The class given is functional, organism-based. To be noted: dose 15-60 mg/kg/day, time <= 14.0 day.
The species named for series [38] is Mus musculus. The series can be described thus: Antiinflammatory activity in DSS-induced male C57BL/6 mouse model of inflammatory bowel disease assessed as reduction in IRF5 level. Type of series: functional, organism-based.
The test system of series [39] is Mus musculus. Briefly: Antiinflammatory activity in DSS-induced male C57BL/6 mouse model of inflammatory bowel disease assessed as downregulation of MyD88 expression at 50 to 200 microM/Kg by Western blot analysis. Type of series: functional, organism-based. The following applies: dose 50-200 µM/Kg.

The source made the active and inactive calls. The rule behind the calls is not given here. Where only a bound is given, the exact number is not on record here.

Turning to `CC(=O)OC[C@H]1O[C@@H](OC2=C(C)OC(=C(C)C)C2=O)[C@H](OC(C)=O)[C@@H](OC(C)=O)[C@@H]1OC(C)=O`, the Activity entry in series [1], in series [2], in series [3], in series [4], in series [5] and in series [6] was “Non-toxic” throughout. Also, the Activity entry in series [7], in series [8], in series [9], in series [10], in [11] and in series [12] was “Non-toxic” in each case. Further, the Activity result in series [13], in series [14], in series [15], in [16], in series [17] and in [19] was “Non-toxic” in each case. Moreover, the Activity entry is given as “Non-toxic” in series [20]; “Non-toxic” in series [22]; “Non-toxic” in series [23]; “Non-toxic” in series [26]; “Non-toxic” in [30]; 45.3% with Mus musculus [31]. Also, the result in the series on Mus musculus [18], in the series with Mus musculus [21], in the series on Mus musculus [24], in the series on Mus musculus [25], with Mus musculus [27] and in the series with Mus musculus [29] was Active. In addition, in series [28], the median lethal dose (LD50) at 840 h was above 500 mg/kg.

Take `CC(C)=C1OC(C)=C(O[C@@H]2O[C@H](CO)[C@@H](O)[C@H](O)[C@H]2O)C1=O`: the outcome in the series on Mus musculus [32], with Mus musculus [33], in the series listed under Mus musculus [34], in the series on Mus musculus [35], in the series filed under Mus musculus [36] and with Mus musculus [37] was Active. The outcome in the series listed under Mus musculus [38] and in the series with Mus musculus [39] was Active.
